Source: paper PMC9033183 (RSC Advances, 2021)
Where “and” joins values, the source holds several entries; their conditions need not be identical. Equal values may be shown once. Entries after “also recorded” stand apart in the source; their conditions may differ.

Key:
[1] = biological target: aldose reductase (ALR2) (Bos taurus, UniProt P16116); assay: Aldose reductase; type: biochemical, calf; settings: for selectivity for ALR2 over ALR1, result in words: ALR2 IC50 compared with ALR1 percent inhibition
[2] = biological target: aldehyde reductase (ALR1) (Bos taurus, UniProt Q3ZCJ2); assay: Aldehyde reductase; type: biochemical, calf; settings: for IC50: ALR1 IC50(μM) ± SEM, enzyme partially purified from calf kidneys, triplicate
Sequence of aldehyde reductase (ALR1) (Q3ZCJ2 whole entry): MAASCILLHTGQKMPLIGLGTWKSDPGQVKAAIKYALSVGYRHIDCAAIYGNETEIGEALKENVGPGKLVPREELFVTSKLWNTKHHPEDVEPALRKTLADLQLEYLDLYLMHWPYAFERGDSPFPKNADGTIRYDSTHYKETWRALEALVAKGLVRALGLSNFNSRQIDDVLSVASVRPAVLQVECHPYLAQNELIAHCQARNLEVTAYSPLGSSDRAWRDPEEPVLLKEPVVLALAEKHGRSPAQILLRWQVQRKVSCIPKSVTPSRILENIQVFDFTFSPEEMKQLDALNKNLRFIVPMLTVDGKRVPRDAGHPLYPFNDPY

ALR2 inhibitory activity, result in words [1] | ALR1 inhibitory activity, result in words [2] | IC50 [2] | SMILES | selectivity for ALR2 over ALR1, result in words [1]
active inhibitors | active inhibitors | 4.93 ± 1.86 µM | CC(=N/N=c1\scc(-c2ccc(Br)cc2)n1-c1cccc2ccccc12)C12CC3CC(CC(C3)C1)C2 [Compound 6b, (2Z)-2-((1-(adamantan-1-yl)ethylidene)hydrazono)-4-(4-bromophenyl)-3-(naphthalen-1-yl)-2,3-dihydrothiazole] | –
weak activity | weak activity | – | COc1cccc(-n2c(-c3ccc(Br)cc3)cs/c2=N/N=C(/C)c2ccc3c(c2)NC(=O)CO3)c1 [Compound 5b, 6-((E)-1-((Z)-(4-(4-bromophenyl)-3-(3-methoxyphenyl)thiazol-2(3H)-ylidene) hydrazono)ethyl)-2H-benzo[b][1,4]oxazin-3(4H)-one] | –
active inhibitors | active inhibitors | 3.13 µM and 3.24 µM | COc1cccc(-n2c(-c3ccc([N+](=O)[O-])cc3)cs/c2=N/N=C(/C)c2ccc3c(c2)NC(=O)CO3)c1 [Compound 5f, 6-((E)-1-((Z)-(3-(3-methoxyphenyl)-4-(4-nitrophenyl)thiazol-2(3H)-ylidene) hydrazono)ethyl)-2H-benzo[b][1,4]oxazin-3(4H)-one] | –
active inhibitors | active inhibitors | 3.14 ± 0.41 µM | C/C(=N/N=c1/scc(-c2ccc(Cl)cc2)n1-c1ccccc1)c1ccc2c(c1)OCCO2 [Compound 7g, (Z)-4-(4-chlorophenyl)-2-((E)-(1-(2,3-dihydrobenzo[b][1,4]dioxin-6-yl)ethylidene) hydrazono)-3-phenyl-2,3-dihydrothiazole] | –
active inhibitors | active inhibitors | 2.94 ± 1.73 µM | C/C(=N/N=c1/scc(-c2ccc(Cl)cc2)n1-c1ccc(F)cc1)c1ccc2c(c1)OCCO2 [Compound 7h, (Z)-4-(4-chlorophenyl)-2-((E)-(1-(2,3-dihydrobenzo[b][1,4]dioxin-6-yl)ethylidene) hydrazono)-3-(4-fluorophenyl)-2,3-dihydrothiazole] | –
active inhibitors | active inhibitors | 3.29 ± 1.47 µM | CC(=N/N=c1\scc(-c2ccc(Br)cc2)n1-c1ccccc1)C12CC3CC(CC(C3)C1)C2 [Compound 6a, (2Z)-2-((1-(adamantan-1-yl)ethylidene)hydrazono)-4-(4-bromophenyl)-3-phenyl-2,3-dihydrothiazole] | –
weak activity | weak activity | – | COc1cccc(-n2c(-c3ccc(Cl)cc3)cs/c2=N/N=C(/C)c2ccc3c(c2)NC(=O)CO3)c1 [Compound 5j, 6-((E)-1-((Z)-(4-(4-chlorophenyl)-3-(3-methoxyphenyl)thiazol-2(3H)-ylidene) hydrazono)ethyl)-2H-benzo[b][1,4]oxazin-3(4H)-one] | –
active inhibitors | active inhibitors | 2.2 ± 0.92 µM | C/C(=N/N=c1/scc(-c2ccc(Cl)cc2)n1Cc1ccccc1)c1ccc2c(c1)OCCO2 [Compound 7i, (Z)-3-benzyl-4-(4-chlorophenyl)-2-((E)-(1-(2,3-dihydrobenzo[b][1,4]dioxin-6-yl)ethylidene)hydrazono)-2,3-dihydrothiazole] | –

Further lines, the compound ahead of its results:

SMILES | ALR2 inhibitory activity, result in words [1] | ALR1 inhibitory activity, result in words [2] | IC50 [2] | selectivity for ALR2 over ALR1, result in words [1]
CC(=N/N=c1\scc(-c2ccc(Br)cc2)n1-c1c(C)cccc1C)C12CC3CC(CC(C3)C1)C2 [Compound 6d, (2Z)-2-((1-(adamantan-1-yl)ethylidene)hydrazono)-4-(4-bromophenyl)-3-(2,6-dimethylphenyl)-2,3-dihydrothiazole] | – | – | – | selective ALR2 inhibitors; also recorded: good inhibitory activity and selectively against ALR2
C/C(=N/N=c1/scc(-c2ccc(Br)cc2)n1-c1c(C)cccc1C)c1ccc2c(c1)OCCO2 [Compound 7c, (Z)-4-(4-bromophenyl)-2-((E)-(1-(2,3-dihydrobenzo[b][1,4]dioxin-6-yl)ethylidene) hydrazono)-3-(2,6-dimethylphenyl)-2,3-dihydrothiazole] | – | – | – | selective ALR2 inhibitors
COc1cccc(-n2c(-c3ccc([N+](=O)[O-])cc3)cs/c2=N/N=C\c2c[nH]c3ccccc23)c1 [Compound 8f, (Z)-2-((E)-((1H-indol-3-yl)methylene)hydrazono)-3-(3-methoxyphenyl)-4-(4-nitrophenyl)-2,3-dihydrothiazole] | – | – | – | selective ALR2 inhibitor
O=[N+]([O-])c1ccc(-c2cs/c(=N/N=C\c3c[nH]c4ccccc34)n2Cc2ccccc2)cc1 [Compound 8e, (Z)-2-((E)-((1H-indol-3-yl)methylene)hydrazono)-3-benzyl-4-(4-nitrophenyl)-2,3-dihydrothiazole] | active inhibitors | active inhibitors | 2.94 ± 1.34 µM | –
CC(=N/N=c1\scc(-c2ccc(Cl)cc2)n1-c1c(C)cccc1C)C12CC3CC(CC(C3)C1)C2 [Compound 6f, (2Z)-2-((1-(adamantan-1-yl)ethylidene)hydrazono)-4-(4-chlorophenyl)-3-(2,6-dimethylphenyl)-2,3-dihydrothiazole] | – | – | – | selective ALR2 inhibitors; also recorded: good inhibitory activity and selectively against ALR2
CC(=N/N=c1\scc(-c2ccc(Br)cc2)n1-c1ccccc1C)C12CC3CC(CC(C3)C1)C2 [Compound 6c, (2Z)-2-((1-(adamantan-1-yl)ethylidene)hydrazono)-4-(4-bromophenyl)-3-(o-tolyl)-2,3-dihydrothiazole] | active inhibitors | active inhibitors | 4.07 ± 2.35 µM | –
CC(=N/N=c1\scc(-c2ccc(Cl)cc2)n1Cc1ccccc1)C12CC3CC(CC(C3)C1)C2 [Compound 6e, (2Z)-2-((1-(adamantan-1-yl)ethylidene)hydrazono)-3-benzyl-4-(4-chlorophenyl)-2,3-dihydrothiazole] | – | – | – | selective ALR2 inhibitors; also recorded: good inhibitory activity and selectively against ALR2
C/C(=N/N=c1/scc(-c2ccc(Br)cc2)n1-c1ccccc1)c1ccc2c(c1)OCCO2 [Compound 7a, (Z)-4-(4-bromophenyl)-2-((E)-(1-(2,3-dihydrobenzo[b][1,4]dioxin-6-yl)ethylidene) hydrazono)-3-phenyl-2,3-dihydrothiazole] | – | – | – | selective ALR2 inhibitors
C/C(=N/N=c1/scc(-c2ccc(Br)cc2)n1Cc1ccccc1)c1ccc2c(c1)OCCO2 [Compound 7b, (Z)-3-benzyl-4-(4-bromophenyl)-2-((E)-(1-(2,3-dihydrobenzo[b][1,4]dioxin-6-yl)ethylidene)hydrazono)-2,3-dihydrothiazole] | – | – | – | selective ALR2 inhibitors; also recorded: excellent selectivity; also recorded: considerably selective activity against ARL2; also recorded: significantly selective
